Measurements taken from patent US20250154288A1, “CYTOTOXICITY TARGETING CHIMERAS FOR C-C CHEMOKINE RECEPTOR 2-EXPRESSING CELLS” (GLAXOSMITHKLINE INTELLECTUAL PROPERTY DEVELOPMENT LIMITED, priority 2022, published 2025).
Counter-ions that a name gives are not always drawn.

Columns and labels:
[1] = Blood drug concentration analysis (LC-MS/MS) in In Vivo Depletion Assay; details: human CCR2 (hCCR2) knock-in, 057 background, mouse, whole blood, hCCR2 knock-in mice, IV 0.1 mpk compound + 10 mpk anti-cotinine antibody, 48 hours post-dose, read-out: Exposure of Compound of Formula (I) 48 hours post-dose
Protocol: Human CCR2 (hCCR2) knock-in mice (057 background) were dosed intravenously with a PBS solution containing a compound of Formula (I) to measure depletion of CCR2 expressing cells in peripheral blood. Peripheral blood from IV dosed mice was also analyzed to determine PK properties of the ARM compounds of Formula (I).
Administration to Animal: Solution formulation of antibody and compound of Formula (I) was injected (bolus injection) to the restrained mouse in the right/left lateral tail vein. Animals were dosed with 0.1 milligram per kilogram (mpk) of the compound of Formula (I) and 10 mpk of the anti-cotinine antibody.
Collection of Blood for PK: Blood was collected at time points 0.25 hour, 2 hours, and […] following administration (50 μL/time point) through retro-orbital bleeding under mild isoflurane anesthesia.
Terminal bleeding at end of experiment (48 hr): Approximately 250 μL of blood in K2EDTA tube and approximately 250 μL of blood in SST (serum separation tube) was collected from each mouse through retro-orbital bleeding under deep isoflurane anesthesia. After bleeding, each mouse was sacrificed by cervical dislocation. The blood distribution at termination was determined as follows: • For PK: 50 μL of K2EDTA blood was transferred to another tube for PK • Flow cytometry: Remaining blood (˜200 μL) was used for flow cytometry analysis. • For serum collection: serum separator tubes (BD) were centrifuged at 4° C., 5000 rpm for 15 minutes. Approximately 100 μL serum was separated and stored at −80° C. for further usage. • Blood drug concentration: Samples collected at the various timepoints (0.25 hr, 2 hr, 24 and 48 hr) were analyzed to determine blood drug concentration.
Drug concentration in blood samples was determined by an LC-MS/MS-based bioanalytical method developed at Syngene. Samples were analyzed on Q-Trap, API-5500 LC-MS/MS system coupled with Exion UHPLC system from SCIEX, USA operated in multiple reaction monitoring mode employing electrospray ionization technique in positive polarity. Analyte and internal standard peaks were resolved on Synergi Polar, 75×2.0 mm, 4μ column using mobile phase 10 mM Ammonium acetate in Milli-Q water as phase A and 0.1% Formic acid in acetonitrile as Phase B. Gradient elution was performed with initial composition 95% Phase A at 0.0 min, holding it for 0.2 minutes, ramping to 5% by 1.0 minute, keeping the same for next 0.5 minutes and coming back to 95% by 1.6 minutes. The total run time was 2 minutes.
Working dilutions for calibration curve and quality control standards were prepared by serially diluting 20 mg/mL stock solution with DMSO. Spiked concentrations for calibration curve in the whole blood ranged from 1 ng/mL to 1000 ng/mL. The working solution of internal standard (Verapamil, 25 ng/mL) was prepared in acetonitrile. 10 μL of the study sample and calibration curve, quality control, and blank whole blood samples were aliquoted in 96 deep well plates for processing. 10 μL of Milli-Q water was added to all the samples and briefly vortexed to initiate complete hemolysis. 10 μL of 20 mM dithiothreitol (OTT) was added to all the samples and incubated for 30 minutes at 37° C. The addition of DTT enhanced the recovery of ARM compounds of Formula (I) from the biological matrix. 300 μL of working internal standard solution was added to all samples except total blank and wash samples, where 300 μL of acetonitrile was added. All the samples were vortex mixed for 5 minutes, followed by centrifugation at 4000 rpm for 10 minutes at 4° C. Supernatants were transferred to the loading plate and injected 3 μL to LC-MS/MS system for analysis. The results are shown below in Table 4 and are reported as compound exposure 48 hours post-dose

[2] = target: Anti-cotinine antibody (SEQ ID NO: 11 / SEQ ID NO: 12); test: Binding of Anti-Cotinine Antibody to ARM Compounds measured by Surface Plasmon Resonance (SPR); design: species or system rabbit variable region with human IgG1 Fc domain; details: Biacore T200, 37° C., Kd = koff/kon, average if several runs
Protocol: Anti-cotinine antibodies having a heavy chain sequence of SEQ ID NO: 11 and a light chain sequence of SEQ ID NO: 12 (rabbit variable region with human IgG1 Fc domain containing a DE mutation (S239D/I332E)) were captured on one or more flow cells of a protein A sensor chip (Cytiva) using a Biacore T200 while reserving flow cell 1 as a reference. Following capture, a 3000 second wait step was included to reduce drift during compound analysis. ARM compounds of Formula (I) were then injected at 100 μL/min with 200 and 2000 second association and dissociation times. The entire experiment was run at 37° C. with running buffer containing 10 mM HEPES pH 7.4, 150 mM NaCl, 0.005% P20 and 1% DMSO. ARM compounds of Formula (I) were titrated with a top concentration of 200 nM using a 3-fold 5-point dilution series and a corresponding 5-injection buffer cycle was run for blank subtraction. Data were double referenced by subtracting the response of the reference flow cell from that of the antibody-containing flow cell and subsequently subtracting the referenced blank sensorgrams. Following compound analysis, the surface was regenerated using a 30 second injection of pH 1.5 glycine at a flow rate of 30 μL/min after which antibody was re-captured. The experiment was run using Biacore T200 control software and evaluated using Biacore T200 Evaluation software. Curves were fit with a 1:1 kinetic binding model to obtain kon(1/Ms), koff(1/s), Kd (M) determined as koff/kon, and residence time determined as 1/koff. (s).
Anti-cotinine antibody was tested for binding to ARMs compounds of Formula (I) of the invention in the above assay in or more experimental runs and the results are shown in Table 5 below. Affinity is reported as a pKd value. The pKd value is the negative log of the Kd value, wherein the Kd value is the dissociation constant measured in molar (M) as noted above. For compounds tested in more than one experimental run, the pKd value is reported as an average

SMILES	concentration at 48 h [1]	pKd of Antibody for ARM Compound of Formula (I) [2]
CO[C@@H]1COCC[C@@H]1N[C@@H]1CC[C@](CCCCCNC(=O)[C@H]2CC[C@H](NC(=O)CCCO[C@H]3CC[C@H](OCCNC(=O)[C@H]4CC(=O)N(C)[C@@H]4c4cccnc4)CC3)CC2)(C(=O)N2CCc3ncc(C(F)(F)F)cc3C2)C1 [Example 9, (2S,3S)-N-(2-(((1R,4S)-4-(4-(((1S,4R)-4-((5-((1S,3R)-3-(((3S,4S)-3-Methoxytetrahydro-2H-pyran-4-yl)amino)-1-(3-(trifluoromethyl)-5,6,7,8-tetrahydro-1,6-naphthyridine-6-carbonyl)cyclopentyl)pentyl)carbamoyl)cyclohexyl)amino)-4-oxobutoxy)cyclohexyl)oxy)ethyl)-1-methyl-5-oxo-2-(pyridin-3-yl)pyrrolidine-3-carboxamide]	49.8 ng/mL	9.2
CO[C@@H]1COCC[C@@H]1N[C@@H]1CC[C@](CCCNC(=O)[C@H]2CC[C@H](NC(=O)CCCO[C@H]3CC[C@H](OCCNC(=O)[C@H]4CC(=O)N(C)[C@@H]4c4cccnc4)CC3)CC2)(C(=O)N2CCc3ncc(C(F)(F)F)cc3C2)C1 [Example 3, (2S,3S)-N-(2-(((1R,4S)-4-(4-(((1S,4R)-4-((3-((1S,3R)-3-(((3S,4S)-3-Methoxytetrahydro-2H-pyran-4-yl)amino)-1-(3-(trifluoromethyl)-5,6,7,8-tetrahydro-1,6-naphthyridine-6-carbonyl)cyclopentyl)propyl)carbamoyl)cyclohexyl)amino)-4-oxobutoxy)cyclohexyl)oxy)ethyl)-1-methyl-5-oxo-2-(pyridin-3-yl)pyrrolidine-3-carboxamide]	31.3 ng/mL	9.1
CO[C@@H]1COCC[C@@H]1N[C@@H]1CC[C@@](C(=O)N2Cc3cc(C(F)(F)F)cnc3[C@H](NC(=O)[C@H]3CC[C@H](NC(=O)CCCO[C@H]4CC[C@H](OCCNC(=O)[C@H]5CC(=O)N(C)[C@@H]5c5cccnc5)CC4)CC3)C2)(C(C)C)C1 [Example 14, (2S,3S)-N-(2-(((1R,4S)-4-(4-(((1R,4R)-4-(((R)-6-((1S,3R)-1-isopropyl-3-(((3S,4S)-3-methoxytetrahydro-2H-pyran-4-yl)amino)cyclopentane-1-carbonyl)-3-(trifluoromethyl)-5,6,7,8-tetrahydro-1,6-naphthyridin-8-yl)carbamoyl)cyclohexyl)amino)-4-oxobutoxy)cyclohexyl)oxy)ethyl)-1-methyl-5-oxo-2-(pyridin-3-yl)pyrrolidine-3-carboxamide, 3Formic acid salt]	41.4 ng/mL	9.0
CO[C@@H]1COCC[C@@H]1N[C@@H]1CC[C@](CCCCNC(=O)[C@H]2CC[C@H](NC(=O)CCCO[C@H]3CC[C@H](OCCNC(=O)[C@H]4CC(=O)N(C)[C@@H]4c4cccnc4)CC3)CC2)(C(=O)N2CCc3ncc(C(F)(F)F)cc3C2)C1 [Example 7, (2S,3S)-N-(2-(((1R,4S)-4-(4-(((1S,4R)-4-((4-((1S,3R)-3-(((3S,4S)-3-Methoxytetrahydro-2H-pyran-4-yl)amino)-1-(3-(trifluoromethyl)-5,6,7,8-tetrahydro-1,6-naphthyridine-6-carbonyl)cyclopentyl)butyl)carbamoyl)cyclohexyl)amino)-4-oxobutoxy)cyclohexyl)oxy)ethyl)-1-methyl-5-oxo-2-(pyridin-3-yl)pyrrolidine-3-carboxamide]	54.4 ng/mL	9.2
CO[C@@H]1COCC[C@@H]1N[C@@H]1CC[C@](CCC2CCN(C(=O)[C@H]3CC[C@H](NC(=O)CCCO[C@H]4CC[C@H](OCCNC(=O)[C@H]5CC(=O)N(C)[C@@H]5c5cccnc5)CC4)CC3)CC2)(C(=O)N2CCc3ncc(C(F)(F)F)cc3C2)C1 [Example 2, (2S,3S)—N-(2-(((1R,4S)-4-(4-(((1S,4R)-4-(4-(2-((1S,3R)-3-(((3S,4S)-3-Methoxytetrahydro-2H-pyran-4-yl)amino)-1-(3-(trifluoromethyl)-5,6,7,8-tetrahydro-1,6-naphthyridine-6-carbonyl)cyclopentyl)ethyl)piperidine-1-carbonyl)cyclohexyl)amino)-4-oxobutoxy)cyclohexyl)oxy)ethyl)-1-methyl-5-oxo-2-(pyridin-3-yl)pyrrolidine-3-carboxamide]	53.2 ng/mL	9.2
CO[C@@H]1COCC[C@@H]1N[C@@H]1CC[C@@](C(=O)N2Cc3cc(C(F)(F)F)cnc3[C@@H](NC(=O)[C@H]3CC[C@H](NC(=O)CCCO[C@H]4CC[C@H](OCCNC(=O)[C@H]5CC(=O)N(C)[C@@H]5c5cccnc5)CC4)CC3)C2)(C(C)C)C1 [Example 15, (2S,3S)-N-(2-(((1R,4S)-4-(4-(((1S,4R)-4-(((S)-6-((1S,3R)-1-isopropyl-3-(((3S,4S)-3-methoxytetrahydro-2H-pyran-4-yl)amino)cyclopentane-1-carbonyl)-3-(trifluoromethyl)-5,6,7,8-tetrahydro-1,6-naphthyridin-8-yl)carbamoyl)cyclohexyl)amino)-4-oxobutoxy)cyclohexyl)oxy)ethyl)-1-methyl-5-oxo-2-(pyridin-3-yl)pyrrolidine-3-carboxamide]	35 ng/mL	9.0
CO[C@H]1COCC[C@H]1N[C@H]1CC[C@@](CCCNC(=O)[C@H]2CC[C@@H](NC(=O)CCOCCOCCNC(=O)CCNC(=O)[C@H]3CC(=O)N(C)[C@@H]3c3cccnc3)CC2)(C(=O)N2CCc3ncc(C(F)(F)F)cc3C2)C1 [Example 19, (2S,3S)—N-(3-((2-(2-(3-(((1s,4s)-4-((3-((1R,3S)-3-(((3R,4R)-3-Methoxytetrahydro-2H-pyran-4-yl)amino)-1-(3-(trifluoromethyl)-5,6,7,8-tetrahydro-1,6-naphthyridine-6-carbonyl)cyclopentyl)propyl)carbamoyl)cyclohexyl)amino)-3-oxopropoxy)ethoxy)ethyl)amino)-3-oxopropyl)-1-methyl-5-oxo-2-(pyridin-3-yl)pyrrolidine-3-carboxamide]	54.2 ng/mL	
